Legend:
[1] = test system: Human T cell lines from four cat allergic patients; experiment: IL-2 and IL-4 production by TRFP-primed T cell lines of four cat allergic patients; format: cell-based; conditions: panel of four patients 688, 730, 738, 807
Procedure: Human T cell lines from four cat allergic patients (patients 688, 730, 738, and 807) were isolated. Heparinized peripheral blood specimens were obtained from cat allergic patients and the mononuclear cell fraction was purified by Ficoll-Hypaque centrifugation. An aliquot of these cells (2×10^6) was stimulated in vitro with purified native TRFP (10 μg/ml) and grown in the presence of recombinant IL-2 and IL-4. The T cell line was then rested in culture until ready for secondary proliferation assay. Two×10^4 cells were cultured in 200 μl medium containing various concentrations of test antigens with 5×10^4 γ-irradiated autologous Epstein-Barr Virus transformed cells as antigen presenting cells. After 3 days of culture, each microwell was pulsed overnight with 1 μCurie tritiated thymidine, and the amount of radioactivity incorporated was measured by liquid scintillation counting. The stimulation index (S.I.) for each antigen was then calculated. […] The IL-2 in the medium was measured by proliferation of the IL-2 dependent T cell line, […]. […] IL-4 was measured by an ELISA purchased from R&D Systems, Minneapolis, Minn. […] The stimulation indices for IL-2 and IL-4 production were calculated by dividing the amount of IL-2 or IL-4 contained in the medium from stimulated T cells divided by the amount of IL-2 or IL04 released by non-stimulated T cells.

[2] = test system: Patient 155 TRFP secondary primed T cells; experiment: In vitro induction of T cell non-responsiveness, then proliferation on antigenic challenge; format: cell-based, human; conditions: label = tolerance treatment
Procedure: Patient 155 TRFP secondary primed T cells (2.5×10^6) were rested and cultured with (2.5×10^6) irradiated autologous Epstein Barr Virus transformed B cells (EBV) in 1 ml of complete RPMI with 10% AB serum in 12×75 mm polypropylene snap cap tubes and increasing amounts of antigen over 5 consecutive days. The T cell cultures were exposed to 5 μg/ml purified native TRFP on day 0 and 5 μg/ml, 10 μg/ml, 10 μg/ml and 20 μg/ml thereafter. The peptide treated cultures were exposed to 1 μg/ml peptide on day 0 and 1 μg/ml, 1 μg/ml, 2 μg/ml and 5 μg/ml thereafter. In addition, 0.5 ml of fresh media was replaced on day 2. The cells were then washed and set up for a proliferation assay with 2×10^4 T cells and 2×10^4 irradiated (2500 Rad) autologous EBV and various doses of antigen. T cell proliferation was measured as incorporation of tritiated thymidine at day 9.

[3] = test system: BDF1 mice; experiment: Tolerization of mice with peptide s.c. or i.v., peptide-specific IL-2 production of lymph node cells (CTLL-2); format: in vivo, mouse; conditions: 300 μg in PBS day 0 and 5, intravenously and subcutaneously; challenge 100 μg in CFA
Procedure: Four groups of five BDF1 (C57BL/6J×DBA/2J) mice (females, 6-8 weeks of age), were injected either subcutaneously in a single dorsal site between the forelimbs or intravenously through one of the tail veins. […] The animals were sacrificed by cervical dislocation on day 20 and inguinal and popliteal nodes were removed and placed in rinsing buffer, cold RPMI 1640 containing 1% Fetal Bovine Serum (FBS). The nodes were rinsed with rinsing buffer and forced through a fine stainless steel mesh, using a glass pestal to suspend them in rinsing buffer. The suspended cells were rinsed two times by centrifugation at 1500 rpm for 10 minutes and resuspended with rinsing buffer. An aliquot of suspended cells from each animal was counted on a Coulter Counter Model ZB.
The 0.2 ml cultures were done in triplicate in flat bottom 96 well plates (Costar) at 37° C. and 5% CO2. After 24 hours, […] of the media from each well was placed in separate round bottom 96 well plates (Costar) and was frozen overnight at −20° C. to eliminate carryover of live cells. The supernatants were tested after thawing for their ability to support the growth of CTLL-2, an IL-2 dependent T cell clone (ATCC TIB#214). […] The ^3H-incorporation in each well was counted by a Betaplate Model 1205 scintillation counter. […]

[4] = test system: CD4+ T cells; experiment: Cytokine production of purified CD4+ T cells from peptide Y pre-injected mice; format: in vivo, mouse; conditions: CD4+ T cells from pre-injected mice compared to control CD4+ cells

Substance | IL-4 versus IL-2 production [1] | T cell proliferation following antigenic challenge ([2]; challenge with Fel 8-3) | T cell proliferation following antigenic challenge ([2]; challenge with Ragweed Peptide) | T cell proliferation following antigenic challenge ([2]; challenge with TRFP) | T cell proliferation following antigenic challenge ([2]; no antigenic challenge (—)) | specific IL-2 secretion of draining lymph node cells [3] | reduction in the production of the cytokines (IL-2, IL-3 and IL-4) [4]
NARILKNCVDAKMTEEDKE [Fel 4, TRFP chain 1 amino acids 37-55] | induces more IL-4 than IL-2 | – | – | – | – | – | –
TRFP: human T cell reactive feline protein affinity purified from house dust; two covalently linked chains | favors IL-4 as opposed to IL-2 | 36,030 cmp | 6,670 cmp | 33,160 cmp | 2,190 cmp | – | –
peptide X: amino acid residues 7-30 from chain 1 of TRFP (SEQ. ID. NO: 17); Table 2 lists Fel 8-3 as 7-33 (KRDVDLFLTGTPDEYVEQVAQYKALPV) | – | 3,850 cmp | 5,130 cmp | 12,320 cmp | 1,270 cmp | – | –
peptide Y: amino acid residues 29-55 from chain 1 of TRFP (SEQ. ID. NO: 18) (KALPVVLENARILKNCVDAKMTEEDKE) | – | – | – | – | – | decreased specific IL-2 secretion | greater than 75%

From US7482008B1, “Human T cell reactive feline protein (TRFP) isolated from house dust and uses therefor” (Merck Patent GmbH, priority 1989, dated 2009)
